Assay results taken from the NIST ThermoML archive (doi:10.1016/j.fluid.2014.11.020).
Numbers after ± are expanded uncertainties.

Assay: activity coefficient (dimensionless); of the first substance listed, at infinite dilution; xn = mol fraction of the nth substance listed
Details: Liquid, Chromatography, x1 = 0

SMILES	activity coefficient (323.15 K)	activity coefficient (333.15 K)	activity coefficient (343.15 K)
C1CCCCC1 [cyclohexane] + CCCOC[n+]1ccn(C)c1.N#C[N-]C#N	26.6 ± 1.8	24.3 ± 1.7	22.7 ± 1.6
C1CCCCC1 [cyclohexane] + CCCOC[n+]1ccn(C)c1.O=S(=O)([N-]S(=O)(=O)C(F)(F)F)C(F)(F)F	9.55 ± 0.65	9.25 ± 0.63	9.07 ± 0.62
C1CCCCC1 [cyclohexane] + CCCOC[n+]1ccn(Cc2ccccc2)c1.N#C[N-]C#N	13.1 ± 0.9	12.3 ± 0.84	11.5 ± 0.79
C1CCCCC1 [cyclohexane] + CCCOC[n+]1ccn(Cc2ccccc2)c1.O=S(=O)([N-]S(=O)(=O)C(F)(F)F)C(F)(F)F	4.98 ± 0.34	4.29 ± 0.29	3.99 ± 0.27
C1CCCCC1 [cyclohexane] + CN(C)c1cc[n+](COCCCOC[n+]2ccc(N(C)C)cc2)cc1.O=S(=O)([N-]S(=O)(=O)C(F)(F)F)C(F)(F)F.O=S(=O)([N-]S(=O)(=O)C(F)(F)F)C(F)(F)F	10.7 ± 0.73	9.32 ± 0.64	8.67 ± 0.59
C1CCCCC1 [cyclohexane] + Cn1cc[n+](COCCCOC[n+]2ccn(C)c2)c1.O=S(=O)([N-]S(=O)(=O)C(F)(F)F)C(F)(F)F.O=S(=O)([N-]S(=O)(=O)C(F)(F)F)C(F)(F)F	17.6 ± 1.2	12.4 ± 0.85	
CCCCCCCCCC [decane] + CCCCCCCCn1cc[n+](COCCC)c1C.N#C[N-]C#N	17 ± 1.2	15.5 ± 1.1	14.9 ± 1
CCCCCCCCCC [decane] + CCCCCCCCn1cc[n+](COCCC)c1C.O=S(=O)([N-]S(=O)(=O)C(F)(F)F)C(F)(F)F	8.9 ± 0.61	8.47 ± 0.58	7.92 ± 0.54
CCCCCCCCCC [decane] + CCCCCCCCn1cc[n+](COCCCOC[n+]2ccn(CCCCCCCC)c2C)c1C.N#C[N-]C#N.N#C[N-]C#N	19.5 ± 1.3	19.5 ± 1.3	17.8 ± 1.2
CCCCCCCCCC [decane] + CCCCCCCCn1cc[n+](COCCCOC[n+]2ccn(CCCCCCCC)c2C)c1C.O=S(=O)([N-]S(=O)(=O)C(F)(F)F)C(F)(F)F.O=S(=O)([N-]S(=O)(=O)C(F)(F)F)C(F)(F)F	9.63 ± 0.66	8.73 ± 0.6	8.35 ± 0.57
CCCCCCCCCC [decane] + CCCOC[n+]1ccc(N(C)C)cc1.O=S(=O)([N-]S(=O)(=O)C(F)(F)F)C(F)(F)F	41.1 ± 2.8	38.5 ± 2.6	34.5 ± 2.4
CCCCCCCCCC [decane] + CCCOC[n+]1ccn(C)c1.F[B-](F)(F)F	635 ± 44	573 ± 39	500 ± 34
CCCCCCCCCC [decane] + CCCOC[n+]1ccn(C)c1.N#C[N-]C#N	372 ± 26	356 ± 24	287 ± 20
CCCCCCCCCC [decane] + CCCOC[n+]1ccn(C)c1.O=S(=O)([N-]S(=O)(=O)C(F)(F)F)C(F)(F)F	69.6 ± 4.8	60.5 ± 4.2	53 ± 3.6
CCCCCCCCCC [decane] + CCCOC[n+]1ccn(Cc2ccccc2)c1.F[B-](F)(F)F	244 ± 17	220 ± 15	178 ± 12
CCCCCCCCCC [decane] + CCCOC[n+]1ccn(Cc2ccccc2)c1.N#C[N-]C#N	144 ± 9.9	123 ± 8.4	105 ± 7.2
CCCCCCCCCC [decane] + CCCOC[n+]1ccn(Cc2ccccc2)c1.O=S(=O)([N-]S(=O)(=O)C(F)(F)F)C(F)(F)F	28.8 ± 2	23.2 ± 1.6	21.1 ± 1.4
CCCCCCCCCC [decane] + CN(C)c1cc[n+](COCCCOC[n+]2ccc(N(C)C)cc2)cc1.O=S(=O)([N-]S(=O)(=O)C(F)(F)F)C(F)(F)F.O=S(=O)([N-]S(=O)(=O)C(F)(F)F)C(F)(F)F	79.5 ± 5.5	71 ± 4.9	63 ± 4.3
CCCCCCCCCC [decane] + Cn1cc[n+](COCCCOC[n+]2ccn(C)c2)c1.O=S(=O)([N-]S(=O)(=O)C(F)(F)F)C(F)(F)F.O=S(=O)([N-]S(=O)(=O)C(F)(F)F)C(F)(F)F	141 ± 9.7	132 ± 9	109 ± 7.5
CCCCCCCCCC [decane] + N#C[N-]C#N.N#C[N-]C#N.c1ccc(Cn2cc[n+](COCCCOC[n+]3ccn(Cc4ccccc4)c3)c2)cc1	420 ± 29	371 ± 25	321 ± 22
ClCCl [dichloromethane] + CCCCCCCCn1cc[n+](COCCC)c1C.N#C[N-]C#N	0.34 ± 0.03	0.37 ± 0.03	0.37 ± 0.03
ClCCl [dichloromethane] + CCCCCCCCn1cc[n+](COCCC)c1C.O=S(=O)([N-]S(=O)(=O)C(F)(F)F)C(F)(F)F	0.42 ± 0.04	0.43 ± 0.04	0.48 ± 0.04

SMILES	activity coefficient (323.15 K)	activity coefficient (333.15 K)	activity coefficient (343.15 K)
ClCCl [dichloromethane] + CCCCCCCCn1cc[n+](COCCCOC[n+]2ccn(CCCCCCCC)c2C)c1C.N#C[N-]C#N.N#C[N-]C#N	0.28 ± 0.03	0.29 ± 0.03	0.31 ± 0.03
ClCCl [dichloromethane] + CCCCCCCCn1cc[n+](COCCCOC[n+]2ccn(CCCCCCCC)c2C)c1C.O=S(=O)([N-]S(=O)(=O)C(F)(F)F)C(F)(F)F.O=S(=O)([N-]S(=O)(=O)C(F)(F)F)C(F)(F)F	0.3 ± 0.03	0.3 ± 0.03	0.32 ± 0.03
ClCCl [dichloromethane] + CCCOC[n+]1ccc(N(C)C)cc1.O=S(=O)([N-]S(=O)(=O)C(F)(F)F)C(F)(F)F	0.57 ± 0.04	0.62 ± 0.04	0.63 ± 0.04
ClCCl [dichloromethane] + CCCOC[n+]1ccn(C)c1.F[B-](F)(F)F	1.07 ± 0.07	1.16 ± 0.07	1.19 ± 0.08
ClCCl [dichloromethane] + CCCOC[n+]1ccn(C)c1.N#C[N-]C#N	0.69 ± 0.05	0.74 ± 0.05	0.78 ± 0.05
ClCCl [dichloromethane] + CCCOC[n+]1ccn(C)c1.O=S(=O)([N-]S(=O)(=O)C(F)(F)F)C(F)(F)F	0.71 ± 0.05	0.79 ± 0.05	0.75 ± 0.05
ClCCl [dichloromethane] + CCCOC[n+]1ccn(Cc2ccccc2)c1.F[B-](F)(F)F	0.78 ± 0.05	0.78 ± 0.05	0.79 ± 0.05
ClCCl [dichloromethane] + CCCOC[n+]1ccn(Cc2ccccc2)c1.N#C[N-]C#N	0.58 ± 0.04	0.63 ± 0.04	0.68 ± 0.05
ClCCl [dichloromethane] + CCCOC[n+]1ccn(Cc2ccccc2)c1.O=S(=O)([N-]S(=O)(=O)C(F)(F)F)C(F)(F)F	0.52 ± 0.04	0.44 ± 0.04	0.37 ± 0.03
ClCCl [dichloromethane] + CN(C)c1cc[n+](COCCCOC[n+]2ccc(N(C)C)cc2)cc1.O=S(=O)([N-]S(=O)(=O)C(F)(F)F)C(F)(F)F.O=S(=O)([N-]S(=O)(=O)C(F)(F)F)C(F)(F)F	0.52 ± 0.04	0.54 ± 0.04	0.56 ± 0.04
ClCCl [dichloromethane] + Cn1cc[n+](COCCCOC[n+]2ccn(C)c2)c1.N#C[N-]C#N.N#C[N-]C#N	0.73 ± 0.05	0.8 ± 0.05	0.86 ± 0.06
ClCCl [dichloromethane] + Cn1cc[n+](COCCCOC[n+]2ccn(C)c2)c1.O=S(=O)([N-]S(=O)(=O)C(F)(F)F)C(F)(F)F.O=S(=O)([N-]S(=O)(=O)C(F)(F)F)C(F)(F)F	0.55 ± 0.04	0.61 ± 0.04	0.43 ± 0.04
CCOCC [diethyl ether] + CCCCCCCCn1cc[n+](COCCC)c1C.O=S(=O)([N-]S(=O)(=O)C(F)(F)F)C(F)(F)F	1.13 ± 0.07	1.11 ± 0.07	
CCOCC [diethyl ether] + CCCCCCCCn1cc[n+](COCCCOC[n+]2ccn(CCCCCCCC)c2C)c1C.N#C[N-]C#N.N#C[N-]C#N	2.41 ± 0.16	2.33 ± 0.16	2.13 ± 0.14
CCOCC [diethyl ether] + CCCCCCCCn1cc[n+](COCCCOC[n+]2ccn(CCCCCCCC)c2C)c1C.O=S(=O)([N-]S(=O)(=O)C(F)(F)F)C(F)(F)F.O=S(=O)([N-]S(=O)(=O)C(F)(F)F)C(F)(F)F	0.86 ± 0.06	0.88 ± 0.06	0.92 ± 0.06
CCOCC [diethyl ether] + CCCOC[n+]1ccn(C)c1.F[B-](F)(F)F	10.4 ± 0.71	10.6 ± 0.72	
CCOCC [diethyl ether] + CCCOC[n+]1ccn(C)c1.O=S(=O)([N-]S(=O)(=O)C(F)(F)F)C(F)(F)F	2.21 ± 0.15	2.23 ± 0.15	
CCOCC [diethyl ether] + CCCOC[n+]1ccn(Cc2ccccc2)c1.F[B-](F)(F)F	6.03 ± 0.41	5.79 ± 0.39	
CCOCC [diethyl ether] + CN(C)c1cc[n+](COCCCOC[n+]2ccc(N(C)C)cc2)cc1.O=S(=O)([N-]S(=O)(=O)C(F)(F)F)C(F)(F)F.O=S(=O)([N-]S(=O)(=O)C(F)(F)F)C(F)(F)F	2.46 ± 0.17	2.47 ± 0.17	2.43 ± 0.17
CC(C)OC(C)C [diisopropyl ether] + CCCCCCCCn1cc[n+](COCCC)c1C.N#C[N-]C#N	4.17 ± 0.28	4.05 ± 0.28	
CC(C)OC(C)C [diisopropyl ether] + CCCCCCCCn1cc[n+](COCCC)c1C.O=S(=O)([N-]S(=O)(=O)C(F)(F)F)C(F)(F)F	1.95 ± 0.13	1.86 ± 0.13	1.82 ± 0.12
CC(C)OC(C)C [diisopropyl ether] + CCCCCCCCn1cc[n+](COCCCOC[n+]2ccn(CCCCCCCC)c2C)c1C.N#C[N-]C#N.N#C[N-]C#N	4.38 ± 0.3	4.07 ± 0.28	3.93 ± 0.27
